Experimental data as given in ChEMBL document CHEMBL3885861, “Open TG-GATES”.

Species: Rattus norvegicus
Test: Open TG-GATES - Regimen: Single
Format: toxicity, organism-based, Sprague-Dawley
Parameters: regimen Single, gender Male, age 6 weeks
Conditions: in vivo, po, 150 mg/kg, route gavage, dose level High; for APTT / Bas / Eos / Fbg / Hb / Ht / Lym / MCH / MCHC / MCV / Mono / Neu / PT / Plat / RBC / Ret / WBC: tissue Blood; for KIDNEY_L / KIDNEY_R / KIDNEY_TOTAL: tissue Kidney; for LIVER: tissue Liver; for A/G / ALP / ALT / AST / BUN / CRE / Ca / Cl / DBIL / GLC / IP / K / LDH / Na / PL / RALB / TBIL / TC / TG / TP / gamma-GTP: tissue Plasma

SMILES: CC1=C(CC(=O)O)c2cc(F)ccc2/C1=C\c1ccc([S+](C)[O-])cc1 (configuration not stated)
- TERMINAL_BW (3 h): 202.5 g
- APTT (3 h): 18.7 s
- Bas (3 h): 0%
- Eos (3 h): 0.8%
- Fbg (3 h): 270.6 mg/dL
- Hb (3 h): 12.9 g/dL
- Ht (3 h): 38.9%
- Lym (3 h): 76.4%
- MCH (3 h): 21 pg
- MCHC (3 h): 33.2%
- MCV (3 h): 63.4 fL
- Mono (3 h): 3%
- Neu (3 h): 18.8%
- PT (3 h): 14.3 s
- Plat (3 h): 126.3 x10_4/uL
- RBC (3 h): 615.4 x10_4/ul
- Ret (3 h): 7.8%
- WBC (3 h): 82 x10_2/uL
- KIDNEY_L (3 h): 0.9 g
- KIDNEY_R (3 h): 0.9 g
- KIDNEY_TOTAL (3 h): 1.8 g
- LIVER (3 h): 8.9 g
- A/G (3 h): 1
- ALP (3 h): 1334 IU/L
- ALT (3 h): 39.2 IU/L
- AST (3 h): 71.2 IU/L
- BUN (3 h): 10.4 mg/dL
- CRE (3 h): 0.2 mg/dL
- Ca (3 h): 10.7 mg/dL
- Cl (3 h): 103.8 meq/L
- DBIL (3 h): 0.006 mg/dL
- GLC (3 h): 161.2 mg/dL
- IP (3 h): 8.1 mg/dL
- K (3 h): 4 meq/L
- LDH (3 h): 67.8 IU/L
- Na (3 h): 139.8 meq/L
- PL (3 h): 144.4 mg/dL
- RALB (3 h): 2.5 g/dL
- TBIL (3 h): 0.044 mg/dL
- TC (3 h): 75.6 mg/dL
- TG (3 h): 71.4 mg/dL
- TP (3 h): 5.2 g/dL
- gamma-GTP (3 h): 1 IU/L
- TERMINAL_BW (6 h): 201.1 g
- APTT (6 h): 17.9 s
- Bas (6 h): 0%
- Eos (6 h): 0.4%
- Fbg (6 h): 280 mg/dL
- Hb (6 h): 13.3 g/dL
- Ht (6 h): 40.9%
- Lym (6 h): 65.8%
- MCH (6 h): 21 pg
- MCHC (6 h): 32.7%
- MCV (6 h): 64.4 fL
- Mono (6 h): 3.6%
- Neu (6 h): 29.2%
- PT (6 h): 14 s
- Plat (6 h): 133.5 x10_4/uL
- RBC (6 h): 635 x10_4/ul
- Ret (6 h): 8.1%
- WBC (6 h): 68.2 x10_2/uL
- KIDNEY_L (6 h): 0.9 g
- KIDNEY_R (6 h): 1 g
- KIDNEY_TOTAL (6 h): 1.9 g
- LIVER (6 h): 8.2 g
- A/G (6 h): 1
- ALP (6 h): 1506 IU/L
- ALT (6 h): 40 IU/L
- AST (6 h): 71.4 IU/L
- BUN (6 h): 10.4 mg/dL
- CRE (6 h): 0.2 mg/dL
- Ca (6 h): 10.7 mg/dL
- Cl (6 h): 104.8 meq/L
- DBIL (6 h): 0.01 mg/dL
- GLC (6 h): 168.4 mg/dL
- IP (6 h): 9.3 mg/dL
- K (6 h): 4.1 meq/L
- LDH (6 h): 77.6 IU/L
- Na (6 h): 141.2 meq/L
- PL (6 h): 135.4 mg/dL
- RALB (6 h): 2.6 g/dL
- TBIL (6 h): 0.04 mg/dL
- TC (6 h): 70.6 mg/dL
- TG (6 h): 33 mg/dL
- TP (6 h): 5.3 g/dL
- gamma-GTP (6 h): 1.4 IU/L
- TERMINAL_BW (9 h): 200.1 g
- APTT (9 h): 16.2 s
- Bas (9 h): 0%
- Eos (9 h): 1%
- Fbg (9 h): 294.8 mg/dL
- Hb (9 h): 13.3 g/dL
- Ht (9 h): 40.5%
- Lym (9 h): 67.4%
- MCH (9 h): 20.8 pg
- MCHC (9 h): 32.8%
- MCV (9 h): 63.5 fL
- Mono (9 h): 3.2%
- Neu (9 h): 28%
- PT (9 h): 13.8 s
- Plat (9 h): 122 x10_4/uL
- RBC (9 h): 638 x10_4/ul
- Ret (9 h): 7.8%
- WBC (9 h): 50.2 x10_2/uL
- KIDNEY_L (9 h): 0.9 g
- KIDNEY_R (9 h): 0.9 g
- KIDNEY_TOTAL (9 h): 1.8 g
- LIVER (9 h): 7.6 g
- A/G (9 h): 1
- ALP (9 h): 1365 IU/L
- ALT (9 h): 37.4 IU/L
- AST (9 h): 68.8 IU/L
- BUN (9 h): 9.8 mg/dL
- CRE (9 h): 0.2 mg/dL
- Ca (9 h): 10.4 mg/dL
- Cl (9 h): 107 meq/L
- DBIL (9 h): 0.014 mg/dL
- GLC (9 h): 169.4 mg/dL
- IP (9 h): 10.1 mg/dL
- K (9 h): 4.2 meq/L
- LDH (9 h): 72 IU/L
- Na (9 h): 141.4 meq/L
- PL (9 h): 127.8 mg/dL
- RALB (9 h): 2.6 g/dL
- TBIL (9 h): 0.046 mg/dL
- TC (9 h): 68.4 mg/dL
- TG (9 h): 40 mg/dL
- TP (9 h): 5.2 g/dL
- gamma-GTP (9 h): 1 IU/L
- TERMINAL_BW (24 h): 203.3 g
- APTT (24 h): 15.4 s
- Bas (24 h): 0%
- Eos (24 h): 0.4%
- Fbg (24 h): 378 mg/dL
- Hb (24 h): 10.3 g/dL
- Ht (24 h): 32%
- Lym (24 h): 54.4%
- MCH (24 h): 20.7 pg
- MCHC (24 h): 32.3%
- MCV (24 h): 64 fL
- Mono (24 h): 2.4%
- Neu (24 h): 42%
- PT (24 h): 13 s
- Plat (24 h): 78.4 x10_4/uL
- RBC (24 h): 500.2 x10_4/ul
- Ret (24 h): 8.5%
- WBC (24 h): 96.3 x10_2/uL
- KIDNEY_L (24 h): 0.9 g
- KIDNEY_R (24 h): 0.9 g
- KIDNEY_TOTAL (24 h): 1.8 g
- LIVER (24 h): 9.1 g
- A/G (24 h): 0.9
- ALP (24 h): 747.4 IU/L
- ALT (24 h): 30.2 IU/L
- AST (24 h): 42.6 IU/L
- BUN (24 h): 24 mg/dL
- CRE (24 h): 0.2 mg/dL
- Ca (24 h): 9.3 mg/dL
- Cl (24 h): 105.2 meq/L
- DBIL (24 h): 0.008 mg/dL
- GLC (24 h): 162.4 mg/dL
- IP (24 h): 9.8 mg/dL
- K (24 h): 5.1 meq/L
- LDH (24 h): 58.8 IU/L
- Na (24 h): 137.2 meq/L
- PL (24 h): 117 mg/dL
- RALB (24 h): 1.5 g/dL
- TBIL (24 h): 0.024 mg/dL
- TC (24 h): 67.4 mg/dL
- TG (24 h): 126.6 mg/dL
- TP (24 h): 3.2 g/dL
- gamma-GTP (24 h): 0.8 IU/L
